Molecular target: T1, epithelial sodium channel (ENaC) (Homo sapiens, UniProt P37088+P51168+P51170)
T1 construct: host or cells: primary human bronchial epithelial cells (HBECs), differentiated at the air-liquid interface
T1 sequence (P37088 1-669): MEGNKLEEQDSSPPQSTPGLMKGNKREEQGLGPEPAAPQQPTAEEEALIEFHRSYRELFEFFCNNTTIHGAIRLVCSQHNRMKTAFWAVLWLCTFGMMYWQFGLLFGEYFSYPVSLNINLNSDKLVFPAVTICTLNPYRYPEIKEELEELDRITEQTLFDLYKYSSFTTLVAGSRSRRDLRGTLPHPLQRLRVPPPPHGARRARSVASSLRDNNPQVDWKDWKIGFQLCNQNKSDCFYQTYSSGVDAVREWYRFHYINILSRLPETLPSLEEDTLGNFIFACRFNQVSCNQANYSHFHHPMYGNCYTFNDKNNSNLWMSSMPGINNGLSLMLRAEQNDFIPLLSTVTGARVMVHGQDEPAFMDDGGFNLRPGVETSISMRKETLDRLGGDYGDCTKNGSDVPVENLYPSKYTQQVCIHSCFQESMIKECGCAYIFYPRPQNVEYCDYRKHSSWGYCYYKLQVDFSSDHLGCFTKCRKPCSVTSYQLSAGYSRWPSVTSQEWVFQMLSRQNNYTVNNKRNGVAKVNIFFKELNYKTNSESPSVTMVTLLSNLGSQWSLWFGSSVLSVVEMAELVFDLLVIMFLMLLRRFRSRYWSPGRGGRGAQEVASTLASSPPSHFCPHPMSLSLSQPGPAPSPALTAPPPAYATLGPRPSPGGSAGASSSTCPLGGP
T1 sequence (P51168 1-640): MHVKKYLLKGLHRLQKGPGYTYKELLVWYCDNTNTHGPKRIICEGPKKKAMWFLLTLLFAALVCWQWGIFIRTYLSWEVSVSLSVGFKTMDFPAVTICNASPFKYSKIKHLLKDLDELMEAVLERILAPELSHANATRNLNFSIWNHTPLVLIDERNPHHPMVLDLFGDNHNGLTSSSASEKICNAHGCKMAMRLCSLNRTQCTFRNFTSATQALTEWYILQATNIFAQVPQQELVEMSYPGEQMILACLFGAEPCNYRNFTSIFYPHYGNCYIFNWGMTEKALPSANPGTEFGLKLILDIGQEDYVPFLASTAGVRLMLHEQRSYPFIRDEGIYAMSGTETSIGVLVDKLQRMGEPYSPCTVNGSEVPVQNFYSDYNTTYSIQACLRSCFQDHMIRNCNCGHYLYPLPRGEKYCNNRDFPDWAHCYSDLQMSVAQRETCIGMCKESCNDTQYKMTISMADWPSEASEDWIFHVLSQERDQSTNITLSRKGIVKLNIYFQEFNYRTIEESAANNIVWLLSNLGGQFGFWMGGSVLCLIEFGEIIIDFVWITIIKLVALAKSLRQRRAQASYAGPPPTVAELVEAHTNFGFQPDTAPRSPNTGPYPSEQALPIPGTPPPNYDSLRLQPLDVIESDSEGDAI
T1 sequence (P51170 1-649): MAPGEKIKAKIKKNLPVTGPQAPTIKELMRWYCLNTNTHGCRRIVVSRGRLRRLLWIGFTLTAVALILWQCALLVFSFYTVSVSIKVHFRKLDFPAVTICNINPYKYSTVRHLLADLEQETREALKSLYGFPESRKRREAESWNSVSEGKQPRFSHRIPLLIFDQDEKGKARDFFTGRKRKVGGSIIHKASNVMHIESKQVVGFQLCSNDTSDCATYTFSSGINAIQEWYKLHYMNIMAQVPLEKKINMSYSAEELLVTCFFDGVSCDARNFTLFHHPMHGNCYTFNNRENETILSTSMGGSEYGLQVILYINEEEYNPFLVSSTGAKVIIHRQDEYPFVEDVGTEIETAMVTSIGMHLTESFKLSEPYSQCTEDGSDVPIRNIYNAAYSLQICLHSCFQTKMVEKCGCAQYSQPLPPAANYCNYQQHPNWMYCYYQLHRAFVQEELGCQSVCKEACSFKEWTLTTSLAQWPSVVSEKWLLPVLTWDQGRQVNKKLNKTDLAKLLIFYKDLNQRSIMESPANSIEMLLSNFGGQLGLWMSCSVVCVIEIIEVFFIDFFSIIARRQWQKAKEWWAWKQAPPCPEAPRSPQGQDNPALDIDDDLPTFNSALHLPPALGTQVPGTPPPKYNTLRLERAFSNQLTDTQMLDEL
Assay: Short circuit current (ISC) measurements in human bronchial epithelial cells, inhibition of amiloride-sensitive ISC
Format: cell-based
Conditions: inhibition of the amiloride-sensitive ISC; HBECs cultured at air-liquid interface, Ussing chamber, compound added to apical chamber
Method: Compounds of formula (I), hereinafter referred to alternatively as “agents of the invention”, are useful as pharmaceuticals. In particular, the compounds have good ENaC blocker activity and may be tested in the following assays.
Human Bronchial Epithelial cells (HBECs) (Cambrex) were cultured under air-liquid interface conditions to provide a well differentiated mucociliary phenotype.
HBECs were cultured using a modification of the method described by Gray and colleagues (Gray et al., 1996). Cells were seeded in plastic T-162 flasks and were grown in bronchial epithelial cell growth medium (BEGM; Cambrex) supplemented with bovine pituitary extract (52 μg/mL), hydrocortisone (0.5 μg/mL), human recombinant epidermal growth factor (0.5 ng/mL), epinephrine (0.5 μg/mL), transferrin (10 μg/mL), insulin (5 μg/mL), retinoic acid (0.1 μg/mL), triiodothyronine ([…]), gentamycin (50 μg/mL) and amphotericin B (50 ng/mL). Medium was changed every 48 hours until cells were 90% confluent. Cells were then passaged and seeded (8.25×10^5 cells/insert) on polycarbonate Snapwell inserts (Costar) in differentiation media containing 50% DMEM in BEGM with the same supplements as above but without triiodothyronine and a final retinoic acid concentration of 50 nM (all-trans retinoic acid). Cells were maintained submerged for the first 7 days in culture, after which time they were exposed to an apical air interface for the remainder of the culture period. At this time, media was changed to DMEM:F12 media containing 2% v/v Ultroser G for the remainder of culture. Amphotericin B was removed from all media 3 feeds prior to use in the Ussing Chambers. Cells were used between days 7 and 21 after establishment of the apical-air interface. At all stages of culture, cells were maintained at 37° C. in 5% CO2 in an air incubator.
Snapwell inserts were mounted in Vertical Diffusion Chambers (Costar) and were bathed with continuously gassed Ringer solution (5% CO2 in O2; pH 7.4) maintained at 37° C. containing (in mM): 120 NaCl, 25 NaHCO3, 3.3 KH2PO4, 0.8 K2HPO4, 1.2 CaCl2, 1.2 MgCl2, and 10 glucose. The solution osmolarity was between 280 and 300 mOsmol/kg H2O for all physiological salt solutions used. Cells were voltage clamped to 0 mV (model EVC4000; WPI). RT was measured by applying a 1- or 2-mV pulse at 30-s intervals and calculating RT by Ohm's law. Data were recorded using a PowerLab workstation (ADInstruments).
Test compounds were prepared as a 10 mM stock solution in DMSO (95%). Serial 3-fold dilutions were freshly prepared in an appropriate vehicle (distilled H2O or Ringers solution). The initial concentration was added to the apical chamber as a 1000× concentrate in 5 μL, resulting in a final 1× concentration the 5 mL volume of the Ussing chamber. Subsequent additions of compound were added in a 3.3 μL volume of the 1000× serially diluted stock solution. At the completion of the concentration-response experiment, amiloride (10 μM) was added into the apical chamber to enable the total amiloride-sensitive current to be measured. An amiloride control IC50 was established at the start of each experiment.
Results are expressed as the mean % inhibition of the amiloride-sensitive ISC. Concentration-response curves were plotted and IC50 values generated using GraphPad Prism 3.02. Cell inserts were typically run in duplicate and the IC50 calculated on the mean % inhibition data.

Compound | IC50 [µM]
CCOc1ccc(NC(=O)NCCCC[N+](C)(CCCc2ccc(OC)cc2)CCNC(=O)c2nc(Cl)c(N)nc2N)cc1Cl (centres unmarked) [Example 26, {4-[3-(3-Chloro-4-ethoxy-phenyl)-ureido]-butyl}-{2-[(3,5-diamino-6-chloro-pyrazine-2-carbonyl)-amino]-ethyl}-[3-(4-methoxy-phenyl)-propyl]-methyl-ammonium bromide] | 0.012
COc1ccc(CCC[N+](C)(C)CCNC(=O)c2nc(Cl)c(N)nc2N)cc1 [Example 27, {2-[(3,5-diamino-6-chloro-pyrazine-2-carbonyl)-amino]-ethyl}-[3-(4-methoxy-phenyl)-propyl]-dimethyl-ammonium bromide] | 0.22
C[N+](C)(CCCc1ccc(OCCCc2ccc(OC[C@@H](O)CO)cc2)cc1)CCNC(=O)c1nc(Cl)c(N)nc1N [Example 29, {2-[(3,5-Diamino-6-chloro-pyrazine-2-carbonyl)-amino]-ethyl}-[3-(4-{3-[4-((S)-2,3-dihydroxy-propoxy)-phenyl]-propoxy}-phenyl)-propyl]-dimethyl-ammonium bromide] | 0.025
C[N+](C)(CCNC(=O)CCc1ccccc1)CCNC(=O)c1nc(Cl)c(N)nc1N [Example 30, {2-[(3,5-Diamino-6-chloro-pyrazine-2-carbonyl)-amino]-ethyl}-dimethyl-2-[(3-phenyl-propionylamino)-ethyl]-ammonium hexafluorophosphate] | 0.14
C[N+](C)(CCNC(=O)CCc1ccc(Cl)cc1)CCNC(=O)c1nc(Cl)c(N)nc1N [Example 33, {2-[3-(4-Chloro-phenyl)-propionylamino]-ethyl}-{2-[(3,5-diamino-6-chloro-pyrazine-2-carbonyl)-amino]-ethyl}-dimethyl-ammonium hexafluorophosphate] | 0.15
COc1ccc2c(c1)CCCC2CC(=O)NCC[N+](C)(C)CCNC(=O)c1nc(Cl)c(N)nc1N (centres unmarked) [Example 35, {2-[(3,5-Diamino-6-chloro-pyrazine-2-carbonyl)-amino]ethyl}-{2-[2-(6-methoxy-1,2,3,4-tetrahydro-naphthalen-1-yl)-acetylamino]-ethyl}-dimethyl-ammonium hexafluorophosphate] | 0.41
C[N+](C)(CCNC(=O)CCc1ccc(F)cc1)CCNC(=O)c1nc(Cl)c(N)nc1N [Example 38, {2-[(3,5-Diamino-6-chloro-pyrazine-2-carbonyl)-amino]-ethyl}-{2-[3-(4-fluoro-phenyl)-propionylamino]-ethyl}-dimethyl-ammonium hexafluorophosphate] | 0.81
C[N+](C)(CCCNC(=O)Cc1ccc(OCc2ccccc2)cc1)CCNC(=O)c1nc(Cl)c(N)nc1N [Example 50, {3-[2-(4-Benzyloxy-phenyl)-acetylamino]-propyl}-{2-[(3,5-diamino-6-chloro-pyrazine-2-carbonyl)-amino]-ethyl}-dimethyl-ammonium bromide] | 0.24
C[N+](C)(CCCNC(=O)Cc1ccc(Cl)cc1)CCNC(=O)c1nc(Cl)c(N)nc1N [Example 51, {3-[2-(4-Chloro-phenyl)-acetylamino]-propyl}-{2-[(3,5-diamino-6-chloro-pyrazine-2-carbonyl)-amino]-ethyl}-dimethyl-ammonium hexafluorophosphate] | 0.42
C[N+](C)(CCCNC(=O)Cc1ccccc1)CCNC(=O)c1nc(Cl)c(N)nc1N [Example 53, {2-[(3,5-Diamino-6-chloro-pyrazine-2-carbonyl)-amino]-ethyl}-dimethyl-(3-phenylacetylamino-propyl)-ammonium hexafluorophosphate] | 0.6
C[N+](C)(CCCCNC(=O)Cc1ccc(OCc2ccccc2)cc1)CCNC(=O)c1nc(Cl)c(N)nc1N [Example 63, {4-[2-(4-Benzyloxy-phenyl)-acetylamino]-butyl}-{2-[(3,5-diamino-6-chloro-pyrazine-2-carbonyl)-amino]-ethyl}-dimethyl-ammonium bromide] | 0.043
C[N+](C)(CCCCNC(=O)CCc1ccc(Cl)cc1)CCNC(=O)c1nc(Cl)c(N)nc1N [Example 65, {4-[3-(4-Chloro-phenyl)-propionylamino]-butyl}-{2-[(3,5-diamino-6-chloro-pyrazine-2-carbonyl)-amino]-ethyl}-dimethyl-ammonium hexafluorophosphate] | 0.15
C[N+](C)(CCCCCNC(=O)Cc1ccc(OCc2ccccc2)cc1)CCNC(=O)c1nc(Cl)c(N)nc1N [Example 78, {5-[2-(4-Benzyloxy-phenyl)-acetylamino]-pentyl}-{2-[(3,5-diamino-6-chloro-pyrazine-2-carbonyl)-amino]-ethyl}-dimethyl-ammonium bromide] | 0.062
C[N+](C)(CCCCCNS(=O)(=O)c1ccc(Cl)cc1)CCNC(=O)c1nc(Cl)c(N)nc1N [Example 94, [5-(4-Chloro-benzenesulfonylamino)-pentyl]-{2-[(3,5-diamino-6-chloro-pyrazine-2-carbonyl)-amino]-ethyl}-dimethyl-ammonium bromide] | 0.25

— patent US8236808B2, “Pyrazine derivatives as ENAC blockers” (Novartis AG, priority 2008, dated 2012)
